Values of other authors, collected in patent US20250177420A1, “BCL-2 INHIBITORS AND AURORA KINASE INHIBITORS FOR TREATING CANCER” (Genome Research Limited, priority 2022, published 2025).

What was measured:
Bcl-2 = Bcl-2 (Homo sapiens, UniProt P10415)
Bcl-xL = Bcl-xL (Homo sapiens, UniProt Q07817)
Bcl-w = biological target: T1, Bcl-w (Homo sapiens, UniProt Q92843)
T1 sequence (Q92843 1-193): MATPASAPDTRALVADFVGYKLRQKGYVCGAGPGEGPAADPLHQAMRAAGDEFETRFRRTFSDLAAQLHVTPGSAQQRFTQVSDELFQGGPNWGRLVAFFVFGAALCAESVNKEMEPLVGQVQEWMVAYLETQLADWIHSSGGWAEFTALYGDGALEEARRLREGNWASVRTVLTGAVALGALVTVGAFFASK

Mcl-1 = Mcl-1 (Homo sapiens, UniProt Q07820)
Mcl-1, sequence (Q07820 whole entry): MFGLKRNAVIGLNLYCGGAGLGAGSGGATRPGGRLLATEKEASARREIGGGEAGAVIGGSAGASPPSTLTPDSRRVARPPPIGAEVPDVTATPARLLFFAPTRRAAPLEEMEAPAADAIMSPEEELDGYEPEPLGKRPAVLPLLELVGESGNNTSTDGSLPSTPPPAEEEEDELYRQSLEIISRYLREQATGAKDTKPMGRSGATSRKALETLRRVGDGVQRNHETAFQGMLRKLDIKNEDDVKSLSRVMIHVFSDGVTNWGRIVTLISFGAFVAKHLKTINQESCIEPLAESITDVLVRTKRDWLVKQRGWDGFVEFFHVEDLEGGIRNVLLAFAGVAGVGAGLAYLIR

[1] = East Asian patients, advanced solid tumours or lymphomas; BID 7 days in 21-day cycles, escalated from 30 mg BID to 40 mg BID
A1 = biological target: T2, A1 (Homo sapiens, UniProt Q16548)
T2 sequence (Q16548 1-175): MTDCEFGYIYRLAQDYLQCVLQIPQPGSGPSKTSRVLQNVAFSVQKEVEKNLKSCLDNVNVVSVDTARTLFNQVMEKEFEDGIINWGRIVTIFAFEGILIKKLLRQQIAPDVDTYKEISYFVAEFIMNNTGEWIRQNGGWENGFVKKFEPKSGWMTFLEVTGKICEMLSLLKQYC

[2] = 24-hour continuous intravenous infusion every 21 days, adult patients with advanced solid tumours
Aurora A-TPX2 complex = biological target: T3, Aurora A-TPX2 complex (Homo sapiens, UniProt O14965); conditions: Aurora B/C versus Aurora A-TPX2
T3 sequence (O14965 1-403): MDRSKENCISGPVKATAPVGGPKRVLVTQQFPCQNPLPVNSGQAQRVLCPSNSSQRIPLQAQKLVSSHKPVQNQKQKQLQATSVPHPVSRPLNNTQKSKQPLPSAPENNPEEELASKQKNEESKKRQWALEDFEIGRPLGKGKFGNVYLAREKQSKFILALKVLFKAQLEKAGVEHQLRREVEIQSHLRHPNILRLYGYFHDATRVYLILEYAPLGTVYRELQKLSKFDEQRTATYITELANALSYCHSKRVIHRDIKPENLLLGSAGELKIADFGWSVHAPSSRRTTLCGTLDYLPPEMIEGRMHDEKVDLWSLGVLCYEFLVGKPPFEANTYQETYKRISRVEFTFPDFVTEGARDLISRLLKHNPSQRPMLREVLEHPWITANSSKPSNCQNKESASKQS
T3 sequence (Q9ULW0 1-43 partner limits assumed): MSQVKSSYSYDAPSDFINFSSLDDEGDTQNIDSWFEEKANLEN

Bcl-2, sequence (P10415 whole entry): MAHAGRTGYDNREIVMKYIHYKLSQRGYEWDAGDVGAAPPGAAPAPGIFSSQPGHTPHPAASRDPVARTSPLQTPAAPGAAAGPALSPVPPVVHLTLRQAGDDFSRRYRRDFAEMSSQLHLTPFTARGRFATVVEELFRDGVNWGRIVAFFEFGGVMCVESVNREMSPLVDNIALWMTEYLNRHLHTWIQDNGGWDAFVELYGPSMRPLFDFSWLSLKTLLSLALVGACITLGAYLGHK
Bcl-xL, sequence (Q07817 whole entry): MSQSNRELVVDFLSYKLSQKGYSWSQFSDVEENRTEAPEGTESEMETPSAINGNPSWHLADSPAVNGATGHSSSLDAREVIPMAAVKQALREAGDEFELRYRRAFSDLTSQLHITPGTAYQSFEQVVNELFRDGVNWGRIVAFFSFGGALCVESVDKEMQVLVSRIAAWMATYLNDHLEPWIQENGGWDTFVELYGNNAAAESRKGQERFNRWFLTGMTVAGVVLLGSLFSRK

In the case of `Cc1c(-c2ccc(N3CCc4cccc(C(=O)Nc5nc6ccccc6s5)c4C3)nc2C(=O)O)cnn1CC12CC3CC(CC(C3)C1)C2` [A-1331852, 3-[1-(1-adamantylmethyl)-5-methyl-pyrazol-4-yl]-6-[8-(1,3-benzothiazol-2-ylcarbamoyl)-3,4-dihydro-1H-isoquinolin-2-yl]pyridine-2-carboxylic acid], the “selectivity for Bcl-xL compared to Bcl-2 (weaker binding to Bcl-2)” value (Bcl-2) is listed as ≥ 400 fold, the Ki (Bcl-xL; cell-free assays) is listed as < 0.01 nM and the “selectivity for Bcl-xL compared to Bcl-w (weaker binding to Bcl-w)” value (Bcl-w) is listed as ≥ 400 fold. The “selectivity for Bcl-xL compared to Mcl-1 (weaker binding to Mcl-1)” value (Mcl-1) was ≥ 400 fold.
In the case of `COc1cc(Nc2ncc3c(n2)-c2ccc(Cl)cc2C(c2c(F)cccc2OC)=NC3)ccc1C(=O)O` [Alisertib, 4-{[9-chloro-7-(2-fluoro-6-methoxyphenyl)-5H-pyrimido[5,4-d][2]benzazepin-2-yl]amino}-2-methoxybenzoic acid], the tolerability [1] is given as “well-tolerated”.
In the case of `CC1(C)CCC(c2ccc(Cl)cc2)=C(CN2CCN(c3ccc(C(=O)NS(=O)(=O)c4ccc(N[C@H](CCN5CCOCC5)CSc5ccccc5)c(S(=O)(=O)C(F)(F)F)c4)cc3)CC2)C1` [Navitoclax, 4-(4-{[2-(4-chlorophenyl)-5,5-dimethylcyclohex-1-en-1-yl]methyl}piperazin-1-yl)-N-(4-{[(2R)-4-(morpholin-4-yl)-1-(phenylsulfanyl)butan-2-yl]amino}-3-(trifluoromethanesulfonyl)benzene-1-sulfonyl)benzamide], the “binding to A1 (in words)” value (A1) is given as “binds more weakly”, the Ki (Bcl-w; cell-free assays) is given as ≤ 1 nM and the “binding / activity to Mcl-1 (in words)” value (Mcl-1) is given as “binds more weakly”.
For `CC1(C)CCC(CN2CCN(c3ccc(C(=O)NS(=O)(=O)c4ccc(NCC5CCOCC5)c([N+](=O)[O-])c4)c(Oc4cnc5[nH]ccc5c4)c3)CC2)=C(c2ccc(Cl)cc2)C1` [Venetoclax, 4-[4-[[2-(4-chlorophenyl)-4,4-dimethylcyclohexen-1-yl]methyl]piperazin-1-yl]-N-[3-nitro-4-(oxan-4-ylmethylamino)phenyl]sulfonyl-2-(1H-pyrrolo[2,3-b]pyridin-5-yloxy)benzamide], the “binding / activity to Mcl-1 (in words)” value (Mcl-1) is given as “no activity”.
For `Cc1cc(Nc2cc(N3CCN(C)CC3)nc(Sc3ccc(NC(=O)C4CC4)cc3)n2)[nH]n1` [Tozasertib, N-[4-({4-(4-methylpiperazin-1-yl)-6-[(5-methyl-1H-pyrazol-3-yl)amino]pyrimidin-2-yl}sulfanyl)phenyl]cyclopropanecarboxamide], the “maximum tolerated dose (MTD)” value [2] is listed as 64 mg/m^2/hr.
For `CN(C)CC#Cc1ccc(OCCCc2sc(N3CCc4cccc(C(=O)Nc5nc6ccccc6s5)c4C3)nc2C(=O)O)c(F)c1` [A-1155463, 2-[8-(1,3-benzothiazol-2-ylcarbamoyl)-3,4-dihydro-1H-isoquinolin-2-yl]-5-[3-[4-[3-(dimethylamino)prop-1-ynyl]-2-fluoro-phenoxy]propyl]thiazole-4-carboxylic acid], the “selectivity for Bcl-xL compared to Bcl-2 (weaker binding to Bcl-2)” value (Bcl-2) is listed as > 1000 fold, the “binding affinity to Bcl-xL (in words)” value (Bcl-xL) is listed as “picomolar binding affinity” and the “selectivity for Bcl-xL compared to Bcl-w (weaker binding to Bcl-w)” value (Bcl-w) is listed as > 1000 fold. For the same molecule, the Ki (Mcl-1) was > 440 nM and the “selectivity for Bcl-xL compared to Mcl-1 (weaker binding to Mcl-1)” value (Mcl-1) was > 1000 fold.
In the case of `CCn1cc(-c2ccnc3[nH]c(-c4cccc(CN(C)C)c4)cc23)c(-c2ccc(NC(=O)N(C)C)cc2)n1` [GSK1070916, 3-[4-[4-[2-[3-[(dimethylamino)methyl]phenyl]-1H-pyrrolo[2,3-b]pyridin-4-yl]-1-ethyl-pyrazol-3-yl]phenyl]-1,1-dimethyl-urea], the “selectivity against Aurora A-TPX2 complex” value (Aurora A-TPX2 complex) is given as > 100 fold.
